The source of these data is US11827616B2, “Heterocyclic compounds as pesticides” (Discovery Purchaser Corporation, priority 2018, dated 2023).

Read-outs that look alike come from different tables or passages of the source.

Common to all, as to format: in vivo
Assay [1] has as its system Phaedon cochleariae. In words: Phaedon cochleariae spray test. Conditions: for pest or weed control at 500 g/ha: Phaedon cochleariae, 168 h, read-out: efficacy. The protocol:
Phaedon cochleariae—Spray Test
(§1) Solvent: 78.0 parts by weight of acetone • • 1.5 parts by weight of dimethylformamide
(§2) Emulsifier: alkylaryl polyglycol ether
(§3) To produce a suitable active compound formulation, 1 part by weight of active compound is dissolved with the specified parts by weight of solvent and made up to the desired concentration with water containing an emulsifier concentration of 1000 ppm. To produce further test concentrations, the formulation is diluted with emulsifier-containing water.
Discs of Chinese cabbage leaves (Brassica pekinensis) are sprayed with an active compound formulation of the desired concentration and, after drying, populated with larvae of the mustard beetle (Phaedon cochleariae).
After 7 days, the efficacy in % is determined. 100% means that all the beetle larvae have been killed; 0% means that no beetle larvae have been killed.

Assay [2] relates to Spodoptera frugiperda. Kind of assay: Spodoptera frugiperda spray test. Conditions: for pest or weed control at 500 g/ha: Spodoptera frugiperda, 168 h, read-out: efficacy. The protocol: Spodoptera frugiperda—Spray Test
as §1, §2, §3
Leaf discs of maize (Zea mays) are sprayed with an active compound formulation of the desired concentration and, after drying, populated with caterpillars of the fall armyworm (Spodoptera frugiperda).
After 7 days, the efficacy in % is determined. 100% means that all the caterpillars have been killed; 0% means that no caterpillar has been killed.

Assay [3] deals with Boophilus microplus. Kind of assay: Boophilus microplus injection test. Conditions: for efficacy (laying of fertile eggs): application rate 20 μg/animal, after 7 days. On the procedure:
Boophilus microplus—Injection Test
(§4) Solvent: dimethyl sulfoxide
To produce a suitable active compound formulation, 10 mg of active compound are mixed with 0.5 ml of solvent and the concentrate is diluted to the desired concentration with solvent.
1 μl of the active compound solution is injected into the abdomen of 5 engorged adult female cattle ticks (Boophilus microplus). The animals are transferred into dishes and kept in a climate-controlled room.
Efficacy is assessed after 7 days by laying of fertile eggs. Eggs which are not visibly fertile are stored in a climate-controlled cabinet until the larvae hatch after about 42 days. An efficacy of 100% means that none of the ticks has laid any fertile eggs; 0% means that all the eggs are fertile.

The test system of assay [4] is Ctenocephalides felis. Kind of assay: Ctenocephalides felis in vitro contact test with adult cat fleas. To be noted: application rate 5 μg/cm^2 (=500 g/ha); after 48 h. On the procedure: Ctenocephalides felis—In Vitro Contact Tests with Adult Cat Fleas
(§5) For the coating of the test tubes, 9 mg of active compound are first dissolved in 1 ml of acetone p.a. and then diluted to the desired concentration with acetone p.a. 250 μl of the solution are distributed homogeneously on the inner walls and the base of a 25 ml glass tube by turning and rocking on an orbital shaker (rocking rotation at 30 rpm for 2 h). With 900 ppm of active compound solution and internal surface area 44.7 cm^2, given homogeneous distribution, an area-based dose of 5 μg/cm^2 is achieved.
After the solvent has evaporated off, the tubes are populated with 5-10 adult cat fleas (Ctenocephalides felis), sealed with a perforated plastic lid and incubated in a horizontal position at room temperature and ambient humidity. After 48 h, efficacy is determined. To this end, the tubes are stood upright and the fleas are knocked to the base of the tube. Fleas which remain motionless at the base or move in an uncoordinated manner are considered to be dead or moribund.
100% efficacy means that all the fleas were dead or moribund. 0% efficacy means that no fleas were harmed.

Assay [5] concerns Lucilia cuprina. In words: Lucilia cuprina test. To be noted: application rate 100 ppm; L1 larvae; after 2 days. On the procedure:
as §4
To produce a suitable active compound formulation, 10 mg of active compound are mixed with 0.5 ml of dimethyl sulfoxide, and the concentrate is diluted with water to the desired concentration.
About 20 L1 larvae of the Australian sheep blowfly (Lucilia cuprina) are transferred into a test vessel containing minced horsemeat and the active compound formulation of the desired concentration.
After 2 days, the kill in % is determined. 100% means that all the larvae have been killed; 0% means that no larvae have been killed.

The test system of assay [6] is Tetranychus urticae. Kind of assay: Tetranychus urticae spray test, OP-resistant. Conditions: application rate 500 g/ha; after 6 days. The protocol:
Tetranychus urticae—Spray Test, OP-Resistant
Solvent: 78.0 Parts by Weight of Acetone • • 1.5 parts by weight of dimethylformamide
as §2, §3
Discs of bean leaves (Phaseolus vulgaris) infested with all stages of the greenhouse red spider mite (Tetranychus urticae) are sprayed with an active compound formulation of the desired concentration.
After 6 days, the efficacy in % is determined. 100% means that all the spider mites have been killed; 0% means that no spider mites have been killed.

Assay [7] deals with Rhipicephalus sanguineus. Kind of assay: Rhipicephalus sanguineus in vitro contact test with adult brown dog ticks. To be noted: application rate 5 μg/cm^2 (=500 g/ha); after 48 h. The protocol: Rhipicephalus sanguineus—In Vitro Contact Tests with Adult Brown Dog Ticks
as §5
After the solvent has evaporated off, the tubes are populated with 5-10 adult dog ticks (Rhipicephalus sanguineus), sealed with a perforated plastic lid and incubated in a horizontal position in the dark at room temperature and ambient humidity. After 48 h, efficacy is determined. To this end, the ticks are knocked to the base of the tube and incubated on a hotplate at 45-50° C. for not more than 5 min. Ticks which remain motionless on the base or move in such an uncoordinated manner that they are unable to deliberately avoid the heat by climbing upwards are considered to be dead or moribund.
An efficacy of 100% means that all the ticks were dead or moribund. 0% efficacy means that none of the ticks were harmed.

Setting [8] is: application rate 500 g/ha, after 7 days.

`CON(C)CCOc1ccc(COc2cccc3c(Cl)c(Cl)ccc23)nc1SC` [Example 52, 2-{[6-{[(5,6-dichloro-1-naphthyl)oxy]methyl}-2-(methylsulfanyl)pyridin-3-yl]oxy}-N-methoxy-N-methylethanamine]: the pest or weed control at 500 g/ha in assay [1] (setting [8]) and in assay [2] (setting [8]) was 100% throughout.

Consider `CN(CCOc1cnc(COc2cccc(-c3cccc(OC(F)(F)F)c3)c2)c(F)c1)C(C)(C)C` [Example 66], for which the efficacy in assay [1] (setting [8]) and in assay [2] (setting [8]) was 100% throughout.

Take `CON(C)CCOc1cnc(COc2ccc(Cl)c3ccccc23)c(Cl)c1` [Example 25]: in assay [3], the “efficacy (laying of fertile eggs)” value is on record as 100%. Besides, the efficacy in assay [2] (setting [8]) is recorded as 100%.

In the case of `CN(CCOc1cnc(COc2cccc3c(Cl)c(Cl)ccc23)c(F)c1)C(C)(C)C` [Example 37, N-{2-[(6-{[(5,6-dichloro-1-naphthyl)oxy]methyl}-5-fluoropyridin-3-yl)oxy]ethyl}-N,2-dimethylpropan-2-aminium chloride], the “efficacy (fleas dead or moribund)” value in assay [4] turned out to be 100%. In addition, the “efficacy (laying of fertile eggs)” value in assay [3] is recorded as 80%. Besides, the efficacy in assay [1] (setting [8]) and in assay [2] (setting [8]) was 100% each time.

Regarding `CON(C)CCOc1ccc(COc2cccc3c(Cl)c(Cl)ccc23)nc1Cl` [Example 18], in assay [3], the “efficacy (laying of fertile eggs)” value came out at 100%. In assay [2] (setting [8]), this molecule gave an efficacy of 100%.

As for `COc1cc(OCCN(C)OC)cnc1COc1ccc(Cl)c2ccccc12` [Example 91], the “efficacy (laying of fertile eggs)” value in assay [3] is 100%. The “efficacy (kill in %)” value in assay [5] came out at 80%. The same molecule showed an efficacy in assay [1] (setting [8]) of 83%.

`CON(C)CCOc1cnc(COc2cccc(-c3cccc(F)c3)c2)c(F)c1` [Example 85]: the efficacy in assay [2] (setting [8]) amounted to 83%.

Consider `CCN1CCN(c2cnc(COc3ccc4oc5ccccc5c4c3)c(F)c2)CC1` [Example 46], for which the efficacy in assay [2] (setting [8]) is 83%.

For the molecule `CON(C)CCOc1cnc(COc2ccc(F)c(Br)c2)c(F)c1` [Example 83], the “efficacy (laying of fertile eggs)” value in assay [3] worked out at 80%. In assay [6], this molecule came in with an efficacy of 100%.

In the case of `CC(C)N(CCOc1cnc(COc2ccc3oc4ccccc4c3c2)c(F)c1)C(C)C` [Example 40], in assay [1] (setting [8]), the efficacy amounted to 100%.

As for `CON(C)CCOc1ccc(COc2ccc3oc4ccccc4c3c2)nc1` [Example 31], the “efficacy (ticks dead or moribund)” value in assay [7] is listed as 100%. Besides, the “efficacy (laying of fertile eggs)” value in assay [3] is recorded as 100%. For the same molecule, in assay [5], the “efficacy (kill in %)” value was found to be 100%. Besides, the efficacy in assay [1] (setting [8]) and in assay [2] (setting [8]) was 100% throughout.

With `CCN(CC)CCOc1ccc(COc2cccc3c(Cl)c(Cl)ccc23)nc1` [Example 33], the “efficacy (laying of fertile eggs)” value in assay [3] is on record as 80%. In addition, the efficacy in assay [1] (setting [8]) and in assay [2] (setting [8]) was 100% each time.

With `CON(C)CCOc1cnc(COc2cccc(-c3cccc(Cl)c3)c2)c(F)c1` [Example 80], the “efficacy (ticks dead or moribund)” value in assay [7] is listed as 100%. Besides, the “efficacy (laying of fertile eggs)” value in assay [3] is recorded as 100%. In addition, the “efficacy (kill in %)” value in assay [5] worked out at 100%. Further, the efficacy in assay [1] (setting [8]) is recorded as 100%; in assay [2] (setting [8]), 83%.

On to `CN(CCOc1cnc(COc2cccc3c(Cl)c(Cl)ccc23)c(F)c1)C(C)(C)C` [Example 36, N-{2-[(6-{[(5,6-dichloro-1-naphthyl)oxy]methyl}-5-fluoropyridin-3-yl)oxy]ethyl}-N,2-dimethylpropan-2-amine], for which the pest or weed control at 0.02 mg in assay [3] (Rhipicephalus microplus, 168 h, read-out: efficacy (laying of fertile eggs), application rate 20 μg/animal, after 7 days) came out at 100%. Also, the pest or weed control at 500 g/ha in assay [1] and in assay [2] was 100% in each case.

`CC(C)N(CCOc1cnc(COc2ccc(Cl)c(OC(F)(F)F)c2)c(F)c1)C(C)C` [Example 79]: the efficacy in assay [1] (setting [8]) is 100%.

Consider `COc1cc(OCCN(C)OC)cnc1COc1cccc(-c2ccccc2)c1` [Example 94], for which the “efficacy (laying of fertile eggs)” value in assay [3] stood at 80%.

With `CN(CCOc1cnc(COc2ccc(F)c(-c3cccc(OC(F)(F)F)c3)c2)c(F)c1)C(C)(C)C.Cl` [Example 77], the “efficacy (kill in %)” value in assay [5] was 90%. Further, the efficacy in assay [1] (setting [8]) is 83%; in assay [2] (setting [8]), 100%.

`Fc1cc(OCCN2CCCCC2)cnc1COc1cccc2c(Cl)c(Cl)ccc12` [Example 42]: the efficacy in assay [2] (setting [8]) amounted to 100%.

As to `CN(CC#N)CCOc1cnc(COc2cccc3c(Cl)c(Cl)ccc23)c(F)c1` [Example 28], the “efficacy (ticks dead or moribund)” value in assay [7] turned out to be 100%. For the same molecule, in assay [3], the “efficacy (laying of fertile eggs)” value was 100%. For the same molecule, the “efficacy (kill in %)” value in assay [5] was 100%.

With `CON(C)CCOc1cnc(COc2cccc3c(F)cccc23)c(F)c1` [Example 24], in assay [4], the “efficacy (fleas dead or moribund)” value turned out to be 100%. The “efficacy (ticks dead or moribund)” value in assay [7] turned out to be 100%. The “efficacy (laying of fertile eggs)” value in assay [3] was found to be 100%. The molecule also gave an efficacy in assay [2] (setting [8]) of 83%.

With `CON(C)CCOc1ncc(COc2ccc(Cl)c3ccccc23)cn1` [Example 98], the efficacy in assay [1] (setting [8]) came out at 100%.

`CCN1CCN(c2cnc(COc3cccc4c(Cl)c(Cl)ccc34)c(F)c2)CC1` [Example 45]: the efficacy in assay [1] (setting [8]) and in assay [2] (setting [8]) was 100% throughout.

Consider `CC(C)(C)NCCOc1cnc(COc2cccc3c(Cl)c(Cl)ccc23)c(F)c1` [Example 38], for which, in assay [3], the “efficacy (laying of fertile eggs)” value came to 100%. Besides, the “efficacy (kill in %)” value in assay [5] is on record as 80%. Moreover, the efficacy in assay [1] (setting [8]) and in assay [2] (setting [8]) was 100% throughout.

As to `COc1cc(OCCN(C)OC)cnc1COc1cccc2c(Cl)c(Cl)ccc12` [Example 93], the “efficacy (laying of fertile eggs)” value in assay [3] turned out to be 100%. Besides, the “efficacy (kill in %)” value in assay [5] came to 100%.

With `CN(CCOc1cnc(COc2ccc3oc4ccccc4c3c2)c(F)c1)C(C)(C)C.Cl` [Example 35], in assay [1] (setting [8]), the efficacy is recorded as 83%.

On to `CON(C)CCOc1ncc(COc2ccc(Cl)c3ccccc23)cc1Cl` [Example 7], for which the efficacy in assay [6] stood at 100%.

`CC(C)N(C)CCOc1cnc(COc2ccc3oc4ccccc4c3c2)c(F)c1` [Example 43] had an efficacy in assay [1] (setting [8]) of 100%.

`CON(C)CCOc1ccc(COc2ccc3oc4ccccc4c3c2)cn1` [Example 8]: the efficacy in assay [1] (setting [8]) and in assay [2] (setting [8]) was 100% each time.

Turning to `CON(C)CCOc1ccc(COc2ccc(Cl)c(OC(F)(F)F)c2)nc1` [Example 73], the “efficacy (laying of fertile eggs)” value in assay [3] came to 80%. The molecule further came in with an efficacy in assay [6] of 100%.

For the molecule `Fc1cc(OCCN2CCCCC2)cnc1COc1ccc2oc3ccccc3c2c1` [Example 41], the efficacy in assay [6] amounted to 90%.

Turning to `CCN(CC)CCOc1ccc(COc2cccc3c(Cl)c(Cl)ccc23)cn1` [Example 9], the “efficacy (fleas dead or moribund)” value in assay [4] stood at 100%. Besides, the “efficacy (ticks dead or moribund)” value in assay [7] is listed as 100%. Moreover, the “efficacy (laying of fertile eggs)” value in assay [3] stood at 90%. For the same molecule, the efficacy in assay [1] (setting [8]) was found to be 83%; in assay [2] (setting [8]), 100%.
